Laboratory results from ChEMBL document CHEMBL4346735, “Discovery and pharmacological evaluation of indole derivatives as potent and selective RORγt inverse agonist for multiple autoimmune conditions” (Bioorg Med Chem Lett, 2019).
Converted amounts (≈) assume the structure as drawn.

Tests used:
[1] = target: T1, Nuclear receptor ROR-gamma (Mus musculus) (UniProt P51450); test: Transrepression of RORgammat in Balb/c mouse splenocytes assessed as inhibition of anti-CD3/anti-CD28 stimulated IL-17 gene expression at 0.3 uM measured after 24 hrs in presence of anti-CD3/anti-CD28; assay type: cell-based
T1 sequence (whole entry): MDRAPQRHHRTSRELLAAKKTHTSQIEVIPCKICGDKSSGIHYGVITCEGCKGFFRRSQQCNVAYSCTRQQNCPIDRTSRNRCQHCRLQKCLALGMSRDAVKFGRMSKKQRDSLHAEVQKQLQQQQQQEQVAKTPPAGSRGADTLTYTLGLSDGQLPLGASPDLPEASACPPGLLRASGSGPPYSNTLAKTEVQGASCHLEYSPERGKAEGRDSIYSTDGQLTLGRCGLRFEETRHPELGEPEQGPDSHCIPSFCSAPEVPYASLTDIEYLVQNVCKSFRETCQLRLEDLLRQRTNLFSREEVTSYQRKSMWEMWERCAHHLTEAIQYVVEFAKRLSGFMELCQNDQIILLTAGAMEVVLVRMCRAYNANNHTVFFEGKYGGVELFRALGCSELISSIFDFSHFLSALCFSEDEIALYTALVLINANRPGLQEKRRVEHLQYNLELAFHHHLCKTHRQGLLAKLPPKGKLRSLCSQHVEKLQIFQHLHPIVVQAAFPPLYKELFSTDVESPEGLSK

[2] = target: T1, Nuclear receptor ROR-gamma (Mus musculus); test: Transrepression of RORgammat in Balb/c mouse splenocytes assessed as inhibition of anti-CD3/anti-CD28 stimulated IL-17 gene expression at 3 uM measured after 24 hrs in presence of anti-CD3/anti-CD28; assay type: cell-based
[3] = target: T1, Nuclear receptor ROR-gamma (Mus musculus); test: Transrepression of RORgammat in Balb/c mouse splenocytes assessed as inhibition of anti-CD3/anti-CD28 stimulated IL-17 gene expression at 30 uM measured after 24 hrs in presence of anti-CD3/anti-CD28; assay type: cell-based
[4] = Metabolic stability in mouse liver microsomes assessed as parent compound remaining at 1 uM preincubated for 5 mins followed by NADPH addition after 30 mins by LC-MS/MS analysis; assay type: ADME, Microsome; conditions: read-out: Stability
[5] = Metabolic stability in rat liver microsomes assessed as parent compound remaining at 1 uM preincubated for 5 mins followed by NADPH addition after 30 mins by LC-MS/MS analysis; assay type: ADME, Microsome; conditions: read-out: Stability
[6] = Metabolic stability in human liver microsomes assessed as parent compound remaining at 1 uM preincubated for 5 mins followed by NADPH addition after 30 mins by LC-MS/MS analysis; assay type: ADME, Microsome; conditions: read-out: Stability
[7] = Cmax in mouse at 10 mg/kg, po; assay type: ADME, organism-based; set-up: dose 10 mg/kg, route oral; conditions: in vivo
[8] = Tmax in mouse at 10 mg/kg, po; assay type: ADME, organism-based; conditions: in vivo
[9] = AUC (0 to 24 hrs) in mouse at 10 mg/kg, po; assay type: ADME, organism-based; set-up: dose 10 mg/kg, time < 24 hr, route oral; conditions: in vivo
[10] = Volume of distribution at steady state in mouse at 3 mg/kg, iv; assay type: ADME, organism-based; conditions: in vivo, read-out: Vdss
[11] = Clearance in mouse at 3 mg/kg, iv; assay type: ADME, organism-based; conditions: in vivo
[12] = Half life in mouse at 3 mg/kg, iv; assay type: ADME, organism-based; conditions: in vivo
[13] = Oral bioavailability in mouse at 10 mg/kg; assay type: ADME, organism-based; conditions: in vivo
[14] = target: T2, Nuclear receptor ROR-alpha (Homo sapiens, UniProt P35398); test: Inhibition of GAL4-DBD fused RORalpha LBD (unknown origin) expressed in HEK293T cells; assay type: cell-based
T2 sequence (P35398 whole entry): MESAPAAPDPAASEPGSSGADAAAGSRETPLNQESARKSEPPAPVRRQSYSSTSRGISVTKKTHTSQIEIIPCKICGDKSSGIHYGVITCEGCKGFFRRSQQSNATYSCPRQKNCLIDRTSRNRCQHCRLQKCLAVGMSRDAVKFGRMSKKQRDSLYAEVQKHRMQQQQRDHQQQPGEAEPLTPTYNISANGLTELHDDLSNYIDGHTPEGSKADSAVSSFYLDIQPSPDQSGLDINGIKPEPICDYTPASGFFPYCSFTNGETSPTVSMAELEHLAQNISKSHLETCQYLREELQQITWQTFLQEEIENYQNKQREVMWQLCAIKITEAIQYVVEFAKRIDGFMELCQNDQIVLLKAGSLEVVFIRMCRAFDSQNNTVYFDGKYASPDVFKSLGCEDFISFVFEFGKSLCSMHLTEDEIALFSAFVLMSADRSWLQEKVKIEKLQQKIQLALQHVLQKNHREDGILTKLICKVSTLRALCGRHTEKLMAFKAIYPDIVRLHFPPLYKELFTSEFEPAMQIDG

[15] = target: T3, Nuclear receptor ROR-gamma (Homo sapiens, UniProt P51449); test: Transactivation of recombinant GAL4-DBD fused RORgammat LBD (unknown origin) expressed in HEK293T cells incubated for 18 to 24 hrs by dual-Glo luciferase assay; assay type: cell-based
T3 sequence (P51449 whole entry): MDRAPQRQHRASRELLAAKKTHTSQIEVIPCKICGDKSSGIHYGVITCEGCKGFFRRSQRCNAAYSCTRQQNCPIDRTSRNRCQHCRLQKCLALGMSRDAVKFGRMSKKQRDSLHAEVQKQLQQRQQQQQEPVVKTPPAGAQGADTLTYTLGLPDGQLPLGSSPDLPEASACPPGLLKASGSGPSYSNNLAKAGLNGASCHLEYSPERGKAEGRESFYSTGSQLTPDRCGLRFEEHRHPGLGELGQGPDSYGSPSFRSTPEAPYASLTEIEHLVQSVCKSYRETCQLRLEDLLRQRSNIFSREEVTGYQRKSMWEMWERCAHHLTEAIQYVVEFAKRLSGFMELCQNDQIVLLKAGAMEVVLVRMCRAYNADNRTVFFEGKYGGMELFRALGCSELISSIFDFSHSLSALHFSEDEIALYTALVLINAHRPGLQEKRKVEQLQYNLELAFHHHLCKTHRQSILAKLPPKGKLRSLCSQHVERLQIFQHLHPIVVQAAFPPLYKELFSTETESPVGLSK

Cytochrome P450 1A2 = target: T4, Cytochrome P450 1A2 (Homo sapiens, UniProt P05177); test: Inhibition of CYP1A2 in human liver microsomes using phenacetin as substrate preincubated for 5 mins followed by NADPH addition measured after 10 mins by LC-MS/MS analysis
T4 sequence (P05177 whole entry): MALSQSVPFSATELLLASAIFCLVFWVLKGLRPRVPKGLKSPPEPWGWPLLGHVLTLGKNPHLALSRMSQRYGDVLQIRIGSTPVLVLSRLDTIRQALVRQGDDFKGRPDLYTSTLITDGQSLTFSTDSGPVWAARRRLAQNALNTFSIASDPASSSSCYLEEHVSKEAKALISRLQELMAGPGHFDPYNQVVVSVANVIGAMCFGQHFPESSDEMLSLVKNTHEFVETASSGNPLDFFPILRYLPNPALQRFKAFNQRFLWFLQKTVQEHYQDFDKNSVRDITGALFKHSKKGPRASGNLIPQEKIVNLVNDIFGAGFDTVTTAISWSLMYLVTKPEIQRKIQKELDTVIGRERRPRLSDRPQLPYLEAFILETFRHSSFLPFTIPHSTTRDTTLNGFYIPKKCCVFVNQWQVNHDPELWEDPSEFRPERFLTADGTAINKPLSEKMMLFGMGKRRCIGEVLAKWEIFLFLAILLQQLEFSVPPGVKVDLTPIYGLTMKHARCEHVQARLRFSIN

Cytochrome P450 2C9 = Cytochrome P450 2C9 (Homo sapiens, UniProt P11712); test: Inhibition of CYP2C9 in human liver microsomes using diclofenac as substrate preincubated for 5 mins followed by NADPH addition measured after 10 mins by LC-MS/MS analysis
Sequence of Cytochrome P450 2C9 (P11712 whole entry): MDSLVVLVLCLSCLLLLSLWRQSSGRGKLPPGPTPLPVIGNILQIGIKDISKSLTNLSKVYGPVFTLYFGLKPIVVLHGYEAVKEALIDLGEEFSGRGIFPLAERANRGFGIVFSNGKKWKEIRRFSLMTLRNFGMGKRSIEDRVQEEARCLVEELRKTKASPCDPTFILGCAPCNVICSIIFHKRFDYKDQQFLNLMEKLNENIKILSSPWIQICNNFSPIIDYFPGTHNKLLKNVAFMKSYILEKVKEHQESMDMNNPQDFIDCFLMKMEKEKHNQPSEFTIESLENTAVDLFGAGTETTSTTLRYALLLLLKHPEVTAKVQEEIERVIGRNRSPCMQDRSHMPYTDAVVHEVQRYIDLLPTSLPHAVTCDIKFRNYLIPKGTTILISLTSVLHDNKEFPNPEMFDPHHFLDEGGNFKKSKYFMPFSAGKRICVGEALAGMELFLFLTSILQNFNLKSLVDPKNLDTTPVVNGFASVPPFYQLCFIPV

Cytochrome P450 2C19 = Cytochrome P450 2C19 (Homo sapiens, UniProt P33261); test: Inhibition of CYP2C19 in human liver microsomes using (S)-mephenytoin as substrate preincubated for 5 mins followed by NADPH addition measured after 40 mins by LC-MS/MS analysis
Sequence of Cytochrome P450 2C19 (P33261 whole entry): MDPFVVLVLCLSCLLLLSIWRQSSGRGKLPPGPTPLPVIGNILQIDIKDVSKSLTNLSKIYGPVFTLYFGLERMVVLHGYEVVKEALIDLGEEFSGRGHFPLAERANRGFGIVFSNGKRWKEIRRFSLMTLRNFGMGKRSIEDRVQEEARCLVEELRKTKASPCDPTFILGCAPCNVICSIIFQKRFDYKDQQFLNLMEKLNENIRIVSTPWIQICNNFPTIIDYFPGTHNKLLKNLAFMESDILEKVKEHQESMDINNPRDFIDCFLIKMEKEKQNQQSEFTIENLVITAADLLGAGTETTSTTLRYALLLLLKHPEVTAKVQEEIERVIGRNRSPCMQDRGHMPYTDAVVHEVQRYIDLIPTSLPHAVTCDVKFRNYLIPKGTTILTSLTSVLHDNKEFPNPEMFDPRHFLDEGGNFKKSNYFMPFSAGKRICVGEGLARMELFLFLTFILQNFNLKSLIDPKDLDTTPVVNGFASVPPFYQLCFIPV

Cytochrome P450 2D6 = Cytochrome P450 2D6 (Homo sapiens, UniProt P10635); test: Inhibition of CYP2D6 in human liver microsomes using dextromethorphan as substrate preincubated for 5 mins followed by NADPH addition measured after 10 mins by LC-MS/MS analysis
Sequence of Cytochrome P450 2D6 (P10635 whole entry): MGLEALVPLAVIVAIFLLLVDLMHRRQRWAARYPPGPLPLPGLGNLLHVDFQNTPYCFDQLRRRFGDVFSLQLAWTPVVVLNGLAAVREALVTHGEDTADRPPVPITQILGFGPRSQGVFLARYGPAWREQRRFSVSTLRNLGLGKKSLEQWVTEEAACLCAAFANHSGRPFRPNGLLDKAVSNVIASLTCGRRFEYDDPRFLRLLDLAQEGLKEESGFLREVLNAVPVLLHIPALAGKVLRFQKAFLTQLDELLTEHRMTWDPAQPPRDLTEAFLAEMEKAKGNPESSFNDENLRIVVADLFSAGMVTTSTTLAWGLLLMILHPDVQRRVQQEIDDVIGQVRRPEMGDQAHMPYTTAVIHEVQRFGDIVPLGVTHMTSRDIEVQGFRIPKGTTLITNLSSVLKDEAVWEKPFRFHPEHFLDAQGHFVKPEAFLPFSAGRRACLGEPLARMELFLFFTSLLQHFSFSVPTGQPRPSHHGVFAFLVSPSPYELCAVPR

Cytochrome P450 3A4 = Cytochrome P450 3A4 (Homo sapiens, UniProt P08684); test: Inhibition of CYP3A4 in human liver microsomes using midazolam as substrate preincubated for 5 mins followed by NADPH addition measured after 10 mins by LC-MS/MS analysis
Sequence of Cytochrome P450 3A4 (P08684 whole entry): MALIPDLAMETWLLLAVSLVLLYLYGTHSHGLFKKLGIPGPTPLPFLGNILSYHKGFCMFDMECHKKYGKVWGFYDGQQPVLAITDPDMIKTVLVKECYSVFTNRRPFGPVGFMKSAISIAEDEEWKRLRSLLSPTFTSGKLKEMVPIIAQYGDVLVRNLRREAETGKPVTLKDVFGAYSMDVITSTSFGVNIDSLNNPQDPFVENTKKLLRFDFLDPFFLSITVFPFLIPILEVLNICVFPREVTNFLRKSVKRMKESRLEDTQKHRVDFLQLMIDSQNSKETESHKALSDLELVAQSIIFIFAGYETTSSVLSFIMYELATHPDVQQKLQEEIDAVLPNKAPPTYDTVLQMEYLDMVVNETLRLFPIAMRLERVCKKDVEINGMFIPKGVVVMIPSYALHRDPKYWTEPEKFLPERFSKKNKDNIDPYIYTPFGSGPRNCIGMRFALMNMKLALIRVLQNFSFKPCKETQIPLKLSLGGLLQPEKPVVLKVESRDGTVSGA

[16] = Solubility of the compound at pH 2.1; conditions: buffer
[17] = Solubility of the compound at pH 4; conditions: buffer
[18] = Solubility of the compound at pH 7.4; conditions: buffer

## O=C(O)c1ccc(-n2cc(C(=O)c3c(Cl)cccc3C(F)(F)F)c3cccc(F)c32)cc1
[1]
  inhibition: 18%
[2]
  inhibition: 46%
[3]
  inhibition: 55%
[4]
  remaining at 0.5 h, 1 µM: 88%
[5]
  remaining at 0.5 h, 1 µM: 100%
[6]
  remaining at 0.5 h, 1 µM: 88%

## O=C(O)c1ccc(-n2cc(C(=O)c3c(Cl)cccc3Cl)c3ccccc32)c(F)c1
[7]
  Cmax: 5.7 µM
[8]
  Tmax: 0.5 h
[9]
  AUC(0-t) at 24 h: 9.1 µM·h
[10]
  Vd: 2.8 L/kg
[11]
  clearance: 21.2 mL/min/kg
[12]
  half-life: 1.8 h
[13]
  bioavailability: 52%
[14]
  IC50: > 30 µM
[4]
  remaining at 0.5 h, 1 µM: 91%
[5]
  remaining at 0.5 h, 1 µM: 51%
[6]
  remaining at 0.5 h, 1 µM: 92%

## Cc1cccc(Cl)c1C(=O)c1cn(-c2ccc(C(=O)O)cc2)c2ccccc12
[15]
  IC50: 0.025 µM
Cytochrome P450 1A2
  IC50: > 50 µM
Cytochrome P450 2C9
  IC50: 13.5 µM
Cytochrome P450 2C19
  IC50: > 50 µM
Cytochrome P450 2D6
  IC50: > 50 µM
Cytochrome P450 3A4
  IC50: > 50 µM
[16]
  solubility: 1 µM (≈ 0.39 µg/mL)
[17]
  solubility: 1 µM (≈ 0.39 µg/mL)
[18]
  solubility: > 2000 µM
[1]
  inhibition: 3%
[2]
  inhibition: 49%
[3]
  inhibition: 56%
[7]
  Cmax: 18.3 µM
[8]
  Tmax: 0.25 h
[9]
  AUC(0-t) at 24 h: 19.6 µM·h
[10]
  Vd: 2.5 L/kg
[11]
  clearance: 9.6 mL/min/kg
[12]
  half-life: 3.2 h
[13]
  bioavailability: 45%
[14]
  IC50: > 30 µM
[4]
  remaining at 0.5 h, 1 µM: 85%
[5]
  remaining at 0.5 h, 1 µM: 83%
[6]
  remaining at 0.5 h, 1 µM: 89%
